Data set [1] can be described thus: SFT for CMC determination (surface tension, Wilhelmy plate technique). In kind it is physicochemical. To be noted: air/water interface, (20.0±0.5)° C. The method, then:
SFT for CMC determination. The surface activity of the compounds of the invention in solution at the air/water interface was determined using a K100 tensiometer (Kruss, Hamburg, Germany). Surface tensions were determined by dilution of stock solutions (13 g/L for compound 5a (cyF6H3Malt), 4.6 g/L for compound 5b (cyF6H4Malt), 2 g/L for compound 5c (cyF6H5Malt), 10 g/L for compound 8a (isoF5H3Malt), 1.7 g/L for compound 8c (isoF5H5Malt) and 0.4 g/L for compound 8b (isoF7H3Malt), ˜4×CMC) using the Wilhelmy plate technique. In a typical experiment, 13 concentration steps were prepared from solutions equilibrated overnight before measurement. All measurements were performed at (20.0±0.5)° C. until standard deviation reach ±0.05 or during at least 30 min.

Data set [2] has as its system membrane-proteins from native E. coli membranes. The data set is described as follows: Extraction of membrane-proteins from native E. coli membranes, SDS-PAGE quantification. To be noted: for membrane-protein extraction / solubilization efficiency (in words): CMC+1, 2, 5, 10 mM, at least 16 h at 20° C., yields relative to buffer without detergent. The method, then: Solubilization of Membrane-Proteins from native E. coli membranes. E. coli BL21(DE3) cells were transformed with an empty pET-24 vector and selected by kanamycin resistance. After incubation in 400 mL lysogeny broth overnight at 37° C. under constant agitation (150 rpm), cells were harvested by centrifugation and washed twice with saline (154 mM NaCl). Cell pellets were resuspended in ice-cold buffer (100 mM Na2CO3, pH 11.5) and subjected to ultrasonication in an S-250A sonifier (Branson Ultrasonics, Danbury, USA) twice for 10 min each. To remove cell debris, the lysate was centrifuged at 4° C. for 20 min at 7149 rpm (3000 g). The supernatant was ultracentrifuged at 4° C. for 1 h at 31 400 rpm (100,000 g) to separate membrane fragments from soluble and peripheral proteins. Membrane pellets were washed and suspended in working buffer, ultracentrifuged again at 4° C. for 1 h at 31 400 rpm (100,000 g) to remove any residual soluble or peripheral proteins. The resulting pellets were resuspended in buffer (50 mM Tris, 200 mM NaCl, pH 7.4) to a final concentration of 100 mg wet-weight pellet per 1 mL of buffer and mixed in a 1:1 volume ratio with stock solutions of the compounds of the invention in buffer. All samples were incubated for at least 16 h at 20° C. under constant, gentle agitation (500 rpm) and subsequently ultracentrifuged at 4° C. for 1 h at 51 000 rpm (100,000 g). The solubilized supernatant containing micelles was analyzed using SDS-PAGE.
Sodium dodecyl sulphate polyacrylamide gel electrophoresis (SDS-PAGE). The solubilization efficiency of compound 5a, F6OM, F6OPC and DDM on biological membranes was assessed by SDS-PAGE using a NuPAGE Bis-Tris system (Life Technologies, Carlsbad, USA) with a polyacrylamide gradient of 4-12%. 14-μL samples were mixed with 5 μL 4×SDS sample buffer (106 mM Tris HCl, 141 mM Tris base, 2% (w v) SDS, 10% (w v) glycerol, 0.51 mM EDTA, 0.22 mM SERVA Blue G250, and 0.175 mM Phenol Red, pH 8.5) and 1 μL 1 M dithiothreitol (DTT) and boiled at 95° C. for 10 min. 12 μL of each sample was loaded on a ready-to-use NuPAGE. As reference, a standard-weight marker (Roti-Mark 10-150, Carl Roth, Karlsruhe, Germany) was used, and the working buffer was used as negative control. […] For quantification of solubilization efficiencies, gels were photographed with a C4000Z camera (Olympus, Tokyo, Japan), and protein bands were analyzed with ImageJ software.
Results. The intensities (i.e., pixel counts) of SDS-PAGE band patterns (FIG. 2) were analyzed to provide the overall protein-extraction yields which were expressed relative to the buffer without any detergent.

For data set [3] the following is noted: 100 μM POPC LUVs, detergent at CMC+ca. 5 mM, 25° C., light scattering at 90°.
Protocol: Preparation of lipid vesicles. To prepare LUVs, POPC in powder form was weighed on a high-precision XP Delta Range microbalance (Mettler Toledo, Greifensee, Switzerland) and suspended in phosphate buffer (10 mM Na2HIPO4/NaH2PO4, 150 mM NaCl, pH 7.4). The solution was vortexed for 15 min at room temperature and extruded in a LiposoFast extruder (Avestin, Mannheim, Germany) with at least 35 extrusion steps through two stacked polycarbonate membranes with a pore diameter of 100 nm (Avestin). The hydrodynamic diameter of the LUVs was distributed around 120-130 nm, as shown by DLS.
Kinetics of vesicle solubilization. For vesicle solubilization kinetics, measurements were conducted by adding a high concentration (ca. 5 mM) of the compound of the invention above its CMC to 100 μM POPC LUVs in a 3 mm×3 mm quartz glass cuvette. […] Measurements were started immediately after mixing the vesicle suspension to monitor changes in light scattering intensity, Iscatter at an angle of 90° and at 25° C.
The solubilization of preformed large unilamellar vesicles (LUVs) composed of the singly unsaturated phospholipid 1-palmitoyl-2-oleyl-sn-glycero-3-phosphocholine (POPC) was investigated.
The conditions of data set [4]: literature value; cited from earlier work.

“Also recorded” adds a separate entry of the source.

As for `OC[C@H]1O[C@H](O[C@H]2[C@H](O)[C@@H](O)[C@H](OCCCC3(F)C(F)(F)C(F)(F)C(F)(F)C(F)(F)C3(F)F)O[C@@H]2CO)[C@H](O)[C@@H](O)[C@@H]1O` [Compound 5a, 3-(perfluorocyclohexyl)-propoxy-4-O—(α-D-glucopyranosyl)-β-D-glucopyranoside], in data set [1], the “CMC (critical micellar concentration)” value is listed as 3.47 mM and the “γCMC (surface tension at the CMC)” value is on record as 23.9 mN/m. For the same compound, the “membrane-protein extraction / solubilization efficiency (in words)” value in data set [2] was “efficiently extracted membrane-proteins; also recorded: higher membrane-protein extraction yield than F6OM and F6OPC”. In addition, the “solubilization efficiency at low concentrations, compared with DDM (in words)” value in data set [2] (low concentrations, CMC+1-5 mM) is “better solubilization efficiencies than DDM”. Further, in data set [3], the “time to complete solubilization of LUVs” value was around 2 h.
Consider `OC[C@H]1O[C@H](O[C@H]2[C@H](O)[C@@H](O)[C@H](OCCCCC3(F)C(F)(F)C(F)(F)C(F)(F)C(F)(F)C3(F)F)O[C@@H]2CO)[C@H](O)[C@@H](O)[C@@H]1O` [Compound 5b, 4-(perfluorocyclohexyl)-butoxy-4-O—(α-D-glucopyranosyl)-β-D-glucopyranoside], for which, in data set [1], the “CMC (critical micellar concentration)” value is recorded as 2.29 mM and the “γCMC (surface tension at the CMC)” value came out at 22.7 mN/m.
On to `OC[C@H]1O[C@H](O[C@H]2[C@H](O)[C@@H](O)[C@H](OCCCCCC3(F)C(F)(F)C(F)(F)C(F)(F)C(F)(F)C3(F)F)O[C@@H]2CO)[C@H](O)[C@@H](O)[C@@H]1O` [Compound 5c, 5-(perfluorocyclohexyl)-pentoxy-4-O—(α-D-glucopyranosyl)-β-D-glucopyranoside], for which, in data set [1], the “CMC (critical micellar concentration)” value is given as 0.70 mM and the “γCMC (surface tension at the CMC)” value was 23.16 mN/m.
For `OC[C@H]1O[C@H](O[C@H]2[C@H](O)[C@@H](O)[C@H](OCCCC(F)(F)C(F)(F)C(F)(C(F)(F)F)C(F)(F)F)O[C@@H]2CO)[C@H](O)[C@@H](O)[C@@H]1O` [Compound 8a, 3-(perfluoroisopentyl)-propoxy-4-O—(α-D-glucopyranosyl)-β-D-glucopyranoside], in that order: 2.66 mM and 22.5 mN/m.
Taken in the same sequence, the figures for `OC[C@H]1O[C@H](O[C@H]2[C@H](O)[C@@H](O)[C@H](OCCCC(F)(F)C(F)(F)C(F)(F)C(F)(F)C(F)(C(F)(F)F)C(F)(F)F)O[C@@H]2CO)[C@H](O)[C@@H](O)[C@@H]1O` [Compound 8b, 3-(perfluoroisoheptyl)-propoxy-4-O—(α-D-glucopyranosyl)-β-D-glucopyranoside] were 0.11 mM and 17.4 mN/m.
For `OC[C@H]1O[C@H](O[C@H]2[C@H](O)[C@@H](O)[C@H](OCCCCCC(F)(F)C(F)(F)C(F)(C(F)(F)F)C(F)(F)F)O[C@@H]2CO)[C@H](O)[C@@H](O)[C@@H]1O` [Compound 8c, 5-(perfluoroisopentyl)-pentoxy-4-O—(α-D-glucopyranosyl)-β-D-glucopyranoside], in that order: 0.53 mM and 22.1 mN/m.
For the compound `O=C(NCCCC1(F)C(F)(F)C(F)(F)C(F)(F)C(F)(F)C1(F)F)C(O)[C@H](O)[C@H](O[C@@H]1OC(CO)[C@H](O)[C@H](O)C1O)C(O)CO` (stereo partly drawn) [Compound 12, 3-(perfluorocyclohexyl)-N-propane Octahydroxy lactobionamide], in data set [1], the “CMC (critical micellar concentration)” value was 6.32 mM and the “γCMC (surface tension at the CMC)” value was 24.4 mN/m.
`C[N+](C)(CCCCCC1(F)C(F)(F)C(F)(F)C(F)(F)C(F)(F)C1(F)F)CCCS(=O)(=O)[O-]` [Compound 17, 3-(dimethyl(5-(perfluorocyclohexyl)pentyl)ammonio)propane-1-sulfonate]: in data set [1], the “CMC (critical micellar concentration)” value amounted to 3.20 mM and the “γCMC (surface tension at the CMC)” value was 23.7 mN/m.
With `OC[C@H]1O[C@H](O[C@H]2[C@H](O)[C@@H](O)[C@H](OCCC(F)(F)C(F)(F)C(F)(F)C(F)(F)C(F)(F)C(F)(F)F)O[C@@H]2CO)[C@H](O)[C@@H](O)[C@@H]1O` [Compound F6OM, (1H, 1H, 2H, 2H-Perfluorooctyl)-β-D-Maltopyranoside, reference compound], the “membrane-protein extraction / solubilization efficiency (in words)” value in data set [2] is “very limited solubilization”. For the same compound, the CMC in data set [4] is reported as 0.7 mM.
For `C[N+](C)(C)CCOP(=O)([O-])OCCC(F)(F)C(F)(F)C(F)(F)C(F)(F)C(F)(F)C(F)(F)F` [Compound F6OPC, (1H, 1H, 2H, 2H-Perfluorooctyl)phosphocholine, reference compound], the “membrane-protein extraction / solubilization efficiency (in words)” value in data set [2] is “very limited solubilization”. In data set [4], the CMC is 2.9 mM.
With `CCCCCCCCCCCCO[C@@H]1O[C@H](CO)[C@@H](O[C@H]2O[C@H](CO)[C@@H](O)[C@H](O)[C@H]2O)[C@H](O)[C@H]1O` [DDM, n-dodecyl-β-D-maltoside], in data set [4], the CMC was 0.17 mM.

The values above are taken from US20240247207A1, “MALTOSIDE-, LACTOBIONAMIDE-, MONOGLUCOSIDE-, BRANCHED DIGLUCOSIDE-, SULFOBETAINE-, SULFATE- OR AMINOOXIDE-BASED PERFLUORINATED DETERGENTS AND THEIR USE IN MEMBRANE-PROTEINS APPLICATIONS” (AVIGNON UNIVERSITE, priority 2021, published 2024).
